US20250134874A1, “PHARMACEUTICAL FORMULATIONS COMPRISING 3-({[(4R)-7-{METHYL[4-(PROPAN-2-YL)PHENYL]AMINO}-3,4-DIHYDRO-2H-1-BENZOPYRAN-4-YL]METHYL}AMINO)PYRIDINE-4-CARBOXYLIC ACID” (TACHYON THERAPEUTICS, INC., priority 2021, published 2025)

Tested on: 301 cancer cell lines from different tumor types (OncoPanel; HD Biosciences)
Test: 2D cell viability inhibition assay (CellTiter-Glo) in cancer cell line panel
Assay type: cell-based
Set-up: key to AUC: AUC as fraction of the no-inhibition area (dose range × 0–100 % of control)
Settings: for Emax: in %
Protocol: In a larger screening study, compound 1 was evaluated across a broad cancer cell line panel (OncoPanel; HD Biosciences) composed of 301 cancer cell lines from different tumor types.
2D cell viability inhibition assays were performed in multiwell plates seeded with cells from the panel. After seeding, the plates were cultured overnight in a humidified incubator at 37° C. to promote adherence. Assays were initiated in individual wells by adding either DMSO as a vehicle control, growth media as a blank, or serially diluted compound 1 (10 μM to 0.0005 μM with 1:3 serial dilution). Cultures were incubated for 168 hours after which the number of viable cells in each test well was assessed using the CellTiter-Glo® Luminescent Cell Viability Assay. Luminescence readouts were performed using an EnVision® Multilabel Reader and the compound 1 readouts were normalized to the DMSO control readouts, expressed as a percent of the control. Outliers were flagged out by visual inspection. Percent of control was plotted against the corresponding compound 1 concentration and the absolute IC50 value was determined using four-parameter logistic non-linear regression as the concentration where inhibition was 50% of the control. For maximum inhibition <50%, the absolute IC50 was reported as >10. In addition to EC50 and IC50, AUC was determined and was normalized to the area corresponding to theoretical no-inhibition (the rectangular area defined by the compound dose range and 0 to 100 in y). Emax was recorded as the minimum in y with the compound dose range. For those cell lines where Emax>40, EC50 was manually set to 10 μM. A hierarchical clustering algorithm based on Euclidean distance between the standardized input values and “Ward.D” method as implemented in R hclust function was used to visualize the compound 1 cellular potency data. The sensitive/moderate/resistant calls for each cell line was determined by visually inspecting the resulting clustering dendrogram. All the analyses were done in R Core Team.

Compound: CC(C)c1ccc(N(C)c2ccc3c(c2)OCC[C@H]3CNc2cnccc2C(=O)O)cc1 [Compound 1, 3-({[(4R)-7-{methyl[4-(propan-2-yl)phenyl]amino}-3,4-dihydro-2H-1-benzopyran-4-yl]methyl}amino)pyridine-4-carboxylic acid]
- AUC (143B cell line): 0.3582
- Emax (143B cell line): 2.196
- AUC (647V cell line): 0.3912
- Emax (647V cell line): 10.18
- AUC (5637 cell line): 0.4857
- EC50 (5637 cell line): 0.00224 µM
- IC50 (5637 cell line): 0.00611 µM
- Emax (5637 cell line): 33.01
- AUC (7860 cell line): 0.5049
- IC50 (168 h, HS688AT, skin, NS): > 10 µM
- IC50 (168 h, HS739T, breast, NS): > 10 µM
- IC50 (168 h, HS839T, skin, NS): > 10 µM
- IC50 (168 h, HS852T, skin, NS): > 10 µM
- IC50 (168 h, HUH28, biliary tract, NS): > 10 µM
- IC50 (168 h, KG1, haematopoietic and lymphoid tissue, acute myeloid leukaemia): > 10 µM
- IC50 (168 h, KURAMOCHI, ovary, undifferentiated carcinoma): > 10 µM
- IC50 (168 h, NMCG1, central nervous system, NS): > 10 µM
- IC50 (168 h, SKMEL31, skin, NS): > 10 µM
- IC50 (168 h, T24, urinary tract, transitional cell carcinoma): > 10 µM
- IC50 (168 h, TE1, oesophagus, squamous cell carcinoma): > 10 µM
- IC50 (168 h, TE8, oesophagus, squamous cell carcinoma): > 10 µM
- AUC (A101D cell line): 0.4689
- Emax (A101D cell line): 20.46
- AUC (A204, soft tissue, NS, 168 hours): 0.7136
- AUC (A375 cell line): 0.4405
- Emax (A375 cell line): 19.51
- AUC (A549 cell line): 0.573
- AUC (A2058 cell line): 0.5694
- AUC (A2780 cell line): 0.1811
- AUC (ACHN cell line): 0.453
- AUC (AGS cell line): 0.3536
- Emax (AGS cell line): 14.1129
- AUC (ASPC1 cell line): 0.5812
- AUC (AZ521 cell line): 0.2875
- AUC (BFTC905 cell line): 0.3989
- Emax (BFTC905 cell line): 13.74
- AUC (BICR18 cell line): 0.619
- EC50 (BICR18 cell line): 0.187 µM
- IC50 (BICR18 cell line): 0.194 µM
- AUC (BICR22 cell line): 0.6829
- IC50 (BICR22 cell line): > 10 µM
- AUC (BT20, breast, ductal carcinoma, 168 hours): 0.9117
- AUC (BT474, breast, ductal carcinoma, 168 hours): 0.7206
- AUC (BT549 cell line): 0.431
- Emax (BT549 cell line): 20.55
- AUC (BXPC3 cell line): 0.5738
- AUC (C2BBE1, large intestine, adenocarcinoma, 168 hours): 0.8303
- AUC (C32 cell line): 0.2532
- AUC (CAKI1 cell line): 0.5319
- Emax (CAKI1 cell line): 34.03
- AUC (CAL27, upper aerodigestive tract, squamous cell carcinoma, 168 hours): 0.8335
- AUC (CALU1, lung, squamous cell carcinoma, 168 hours): 1.217
- AUC (CALU3, lung, adenocarcinoma, 168 hours): 0.7277
- AUC (CALU6 cell line): 0.4595
- Emax (CALU6 cell line): 18.32
- AUC (CAOV3 cell line): 0.3908
- Emax (CAOV3 cell line): 19.3273
- AUC (CAPAN1 cell line): 0.6391
- AUC (CAPAN2, pancreas, ductal carcinoma, 168 hours): 0.8808
- AUC (CCFSTTG1, central nervous system, astrocytoma, 168 hours): 0.879
- AUC (CFPAC1 cell line): 0.5227
- Emax (CFPAC1 cell line): 29.22
- AUC (CHL1 cell line): 0.3493
- AUC (COLO205 cell line): 0.4833
- Emax (COLO205 cell line): 27.13
- AUC (COLO320HSR cell line): 0.2403
- AUC (COLO679 cell line): 0.502
- AUC (COLO680N cell line): 0.5311
- Emax (COLO680N cell line): 33.76
- AUC (COLO741 cell line): 0.4186
- Emax (COLO741 cell line): 18.78
- AUC (COLO829 cell line): 0.6557
- AUC (CORL279 cell line): 0.3155
- AUC (DAOY, central nervous system, NS, 168 hours): 0.9684
- AUC (DAUDI cell line): 0.5383
- Emax (DAUDI cell line): 25.4109
- AUC (DETROIT562 cell line): 0.5873
- Emax (DETROIT562 cell line): 36.51
- AUC (DLD1 cell line): 0.226
- AUC (DMS53, lung, small cell carcinoma, 168 hours): 0.7426
- AUC (DMS79 cell line): 0.3845
- AUC (DMS153 cell line): 0.6737
- AUC (DMS273 cell line): 0.4815
- AUC (DU145 cell line): 0.4324
- Emax (DU145 cell line): 18.16
- AUC (DV90 cell line): 0.3698
- Emax (DV90 cell line): 11.78
- AUC (ECGI10 cell line): 0.5683
- EC50 (ECGI10 cell line): ≥ 10 µM
- IC50 (ECGI10 cell line): 0.0224 µM
- AUC (FTC133 cell line): 0.4146
- Emax (FTC133 cell line): 22.3385
- AUC (G361, skin, NS, 168 hours): 1.044
- AUC (G401 cell line): 0.2508
- AUC (GAK cell line): 0.6649
- IC50 (GAK cell line): > 10 µM
- AUC (GI1 cell line): 0.6237
- AUC (GP2D cell line): 0.506
- EC50 (GP2d, GP2D cell line): 0.0206 µM
- IC50 (GP2d, GP2D cell line): 0.0262 µM
- AUC (GRANTA519 cell line): 0.4686
- Emax (GRANTA519 cell line): 17.91
- AUC (HCC38, breast, ductal carcinoma, 168 hours): 0.9864
- AUC (HCC70 cell line): 0.4135
- Emax (HCC70 cell line): 13.85
- AUC (HCC78 cell line): 0.5315
- AUC (HCC95 cell line): 0.4072
- AUC (HCC827, lung, adenocarcinoma, 168 hours): 0.8814
- AUC (HCC1143 cell line): 0.6906
- AUC (HCC1187 cell line): 0.465
- Emax (HCC1187 cell line): 34
- AUC (HCC1419, breast, ductal carcinoma, 168 hours): 0.7201
- AUC (HCC1428, breast, NS, 168 hours): 0.7818
